Assays:
Assay type in all cases: cell-based
[1] = tested on: human anagen VI hair follicles; assay: Hair shaft elongation of organ-cultured hair follicles, assay #2 (culture HF 441)
Method: Human anagen VI hair follicles were isolated from scalp skin obtained from three different individuals undergoing routine face-lift surgery. All experiments were performed according to Helsinki guidelines.
Hair follicles were isolated as described (Philpott MP et al, Human hair growth in vitro; J Cell Science 1990, 97(Pt 3):463-71). Isolated HFs were maintained in supplemented, serum-free Williams E medium (Biochrom, Cambridge, UK) supplemented with 2 mMol/L L-glutamine (Invitrogen, Paisley, UK), 10 ng/mL hydrocortisone (Sigma-Aldrich, Taufkirchen, Germany), 10 μg/mL insulin (Sigma-Aldrich), and 1% antibiotic/antimycotic mixture (Gibco, Karlsruhe, Germany). Hair follicles were placed in a 24-well plate with 500 μL medium (day 0) and incubated in a CO2-incubator (5% CO2, 37° C.) over night without any treatment. The next day (day 1) medium was exchanged and test substance was added to each well (5 μL of stock solution was added to 495 μL culture medium). The medium or medium with test substance was changed every 48 hours.
Hair shaft length measurements were performed every second day on individual hair follicles using a binocular microscope with an eyepiece measuring reticule. The length of the follicle was defined as the distance between the base of the bulb and the cut end of the hair fibre (Philpott MP et al, Human hair growth in vitro; J Cell Science 1990, 97(Pt 3):463-71).
(§1) All data were analysed by two-tailed unpaired t-test (SPSS analysis software SPSS Inc., Chicago, USA). For determination of elongation, two outliers at top and bottom end of value range were eliminated; with the measurement of melanogenesis one outlier at both, top and bottom range, was eliminated. Results are given as mean value and standard error of measurement (SEM).

[2] = tested on: human anagen VI hair follicles; assay: Melanogenesis, Fontana Masson staining measured by Image J, assay #1; conditions: for Mean relative darkening of the groups (measured by image J), Mean: 9 days, dark=small index number, light=high index number
Method: Assay #1 Culture HF429: Hair follicles were grown in the wells of a microtiter plate (3 follicles per well) and treated for 9 days with culture medium and test substance as indicated in FIG. 1. Thereafter, elongation, melanogenesis and hair cycle stage were determined.
Fontana Masson staining was performed at the end of the culture period and photos taken of snap frozen sections. The photos were analysed (Image J, public domain, developed at the National Institutes of Health, USA) by measuring the density of two squares, consisting of 150×150 dots, placed over the darkest areas on both sides of the dermal papilla. For Fontana-Masson staining, fixed sections were treated in darkness for 40 minutes with a solution containing 10% silver nitrate (Merck & Co., Inc., Whitehouse Station, N.J., USA; CatNo 1.01512.0100), following by a development in solution containing 5% sodium thiosulphate (Merck & Co., Inc.; CatNo 1.06512.2500) for 1 minute and multiple washings in distilled water for 3 minutes. Counterstaining with 0.5% Neutralrot (Chroma Muenster, Germany, CatNo 2E038). Then dehydration in xylol and covering with Eukitt (O. Kindler GmbH, Freiburg, Germany; CatNo E115).
as §1
Micro-dissected anagen VI hair follicles were treated as above described. At the end of the culture period Fontana Masson staining was performed and photos were taken of the snap frozen sections. The pictures were analysed by measuring the darkness (brightness) of two squares, consisting of 150×150 dots, placed over the darkest areas on both sides of the dermal papilla (dark=small index number, light=high index number). The shading of the different groups was compared to each other and the results were analysed using Student's t-test. The results are shown below in Table 5 and FIG. 7.

[3] = tested on: human anagen hair follicles; assay: Ki67/TUNEL staining, percentage of proliferating cells, assay #3; conditions: after 9 days of culture, Anagen only
Method: Assay #3 Culture HF 446: Eight hair follicle cultures (3 follicles/well) were treated with various concentration of test substance as described for 2 days, followed by snap freezing and sectioning of two wells. Six wells were treated up to 9 days, then snap frozen and sectioned. The distribution of test substances and concentrations were as indicted in FIG. 3. The parameter measured after two days was proliferation/apoptosis, and the parameters measured after 9 days were elongation, proportion of cells in proliferation/apoptosis, and hair cycle stage
After nine days, Ki67/TUNEL staining was performed and photos taken.
Proliferating and resting cells as well as cells undergoing apoptosis were counted separately proximal Auber's line. Results are expressed as percentages. For Ki-67/TUNEL staining, fixed sections were incubated for 60 minutes in a solution comprising 30% TdT-enzyme (Chemicon International, Inc., Temecula, Calif., USA; CatNo S1707). 2 mL stop buffer (Chemicon International, Inc.; CatNo S7110), diluted in 68 mL distilled water, was added for 10 minutes to stop the reaction. This was followed by a pre-incubation for 20 minutes with 10% goat serum (Dako Cytomation, CatNo 50114121) and incubation with mouse-anti human Ki-67 antigen (Chemicon International, Inc., CatNo S7110) 1:20 in PBS with 2% goat serum. The fixed section was then washed in PBS, treated with anti-digoxigenin antibody (Chemicon International, Inc., CatNo S7110) (59DI Antibody solution and 5601 Stop solution, 30 minutes) and goat anti-mouse-IgG-rhodamine red (Jackson Immuno Research, Suffolk, UK; CatNo 115-295-062), 1:200 in PBS with 2% goat serum. After washes with PBS, counterstaining with DAPI™ ([…]) (Roche, Basel, Switzerland; CatNo 236276) and further washes with PBS and mounting using Fluoromount (Southern Biotech, Birmingham, Ala., USA; CatNo 0100-01).
After nine days, Ki67/TUNEL staining was performed and photos were taken. In anagen hair follicles, proliferating cells and cells undergoing apoptosis were counted separately proximal Auber's line. Results are expressed as percentages. […] The results are summarized in Table 6 and FIG. 9 showing the mean percentage of Ki6 7 positive cells with SEM

human hair follicles = assay: Hair cycle staging of cultured hair follicles (assays #1, #2, #3)
Method: (§2) Photodocuments from the Fontana Masson staining were used for hair follicle staging according to previously well-defined morphological criteria (Stenn K S et al, Controls of Hair Follicle Cycling; Physiol Rev 2001, 81:449-494, Müller-Röver S et al, A Comprehensive Guide for the Accurate Classification of Murine Hair Follicles in Distinct Hair Cycle Stages; J Invest Dermatol 2001, 117:3-15). The percentage of hair follicles in anagen, early, mid and late catagen was determined.
as §2, with “determined in the different assays.” for “determined.”

Thymosin beta-4 [TB4] was tested. Which “Mean elongation in % compared to day 0” value ([1]; 100 ng/mL, Day 3) did it give?
Its value is 19.35%.

What about the “Mean elongation in % compared to day 0” value ([1]; 100 ng/mL, Day 5) of the same substance?
The value was 31.66%.

What about the “Mean elongation in % compared to day 0” value ([1]; 100 ng/mL, Day 7) of the same substance?
Its value is 41.77%.

What about the “Mean elongation in % compared to day 0” value ([1]; 100 ng/mL, Day 9) of the same substance?
Its value is 49.94%.

And the “Mean elongation in % compared to day 0” value ([1]; 100 ng/mL, Day O)?
Its value is 0%.

What about the “Mean elongation in % compared to day 0” value ([1]; 1000 ng/mL, Day 3) of the same substance?
Its value is 21.68%.

What about the “Mean elongation in % compared to day 0” value ([1]; 1000 ng/mL, Day 5) of the same substance?
Its value is 32.59%.

And the “Mean elongation in % compared to day 0” value ([1]; 1000 ng/mL, Day 7)?
The value was 37.48%.

What about the “Mean elongation in % compared to day 0” value ([1]; 1000 ng/mL, Day 9) of the same substance?
The value was 43.30%.

What about the “Mean elongation in % compared to day 0” value ([1]; 1000 ng/mL, Day O) of the same substance?
Its value is 0%.

What about the “Mean relative darkening of the groups (measured by image J), Mean” value (“Mean relative darkening of the groups” for short) ([2]; 100 ng/mL) of the same substance?
The value was 101.04.

And the “Mean relative darkening of the groups” value ([2]; 1000 ng/mL)?
The value was 85.52.

And the “Influence on HF melanogenesis (in words)” value ([2]; quantitative Masson-Fontana histochemistry)?
The value was “did not influence HF melanogenesis”.

What about the “Mean percentage of Ki67-positive cells” value ([3]; 100 ng/mL) of the same substance?
The value was 39.30 percentage.

And the “Mean percentage of Ki67-positive cells” value ([3]; 1000 ng/mL)?
The value was 33.14 percentage.

And the “Proportion in catagen compared to control (in words)” value (human hair follicles; 100 ng, Assay #1 and #3)?
The value was “higher proportion of cells in catagen compared to control”.

What about the “Proportion in the stage of anagen compared with controls (in words)” value (human hair follicles; 1000 ng/mL, after nine days) of the same substance?
Its value is “consistently more cells in the stage of anagen”.

With thymulin as the substance, how does the “Mean elongation in % compared to day 0” value ([1]; 10 pg/mL, Day 3) read?
The value was 20.86%.

What about the “Mean elongation in % compared to day 0” value ([1]; 10 pg/mL, Day 5) of the same substance?
The value was 34.97%.

And the “Mean elongation in % compared to day 0” value ([1]; 10 pg/mL, Day 7)?
Its value is 43.26%.

And the “Mean elongation in % compared to day 0” value ([1]; 10 pg/mL, Day 9)?
Its value is 58.90%.

And the “Mean elongation in % compared to day 0” value ([1]; 10 pg/mL, Day O)?
Its value is 0%.

And the “Fontana Masson staining (melanin) compared with control group (in words)” value ([2]; 10 pg/mL)?
Its value is “significantly more staining”.

What about the “Mean relative darkening of the groups” value ([2]; 10 pg/mL) of the same substance?
Its value is 75.73.

And the “Mean relative darkening of the groups” value ([2]; 100 pg/mL)?
The value was 90.48.

And the “Mean percentage of Ki67-positive cells” value ([3]; 10 pg/mL)?
The value was 31.58 percentage.

What about the “Mean percentage of Ki67-positive cells” value ([3]; 100 pg/mL) of the same substance?
Its value is 35.75 percentage.

What about the “Proportion of HFs in anagen compared with control groups (in words)” value (human hair follicles; 10 pg and 100 pg/mL, three assays, 9-day treatment) of the same substance?
The value was “consistently a higher proportion of HFs in anagen than control groups”.

— US20110281802A1, “COMPOSITION FOR TREATMENT AND PREVENTION OF HAIR LOSS AND PREMATURE GRAYING OF HAIR” (Immudiagnostik AG, priority 2007, published 2011)
